Test [1] concerns the target EML4-ALK wt v1 in NIH-3T3 cells (Homo sapiens, UniProt Q9UM73).
For test [2], the target named is T1, human recombinant wild-type ALK kinase domain (amino acids 1093-1411) (Homo sapiens, UniProt Q9UM73).
T1 construct: ALK kinase domain (amino acids 1093-1411); made in house
Put plainly: ALK enzyme assay 2 (microfluidic mobility shift assay).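 Further: kinase reaction run 1 h at room temperature, conversion quantified by electrophoretic separation of fluorescent peptide substrate from phosphorylated product, about 15-20% turnover without inhibitor.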 It is filed as biochemical.
Method: The reactions were incubated for 1 h at room temperature, stopped by the addition of 0.1 M EDTA, pH 8, and the extent of reactions (˜15-20% conversion with no inhibitor) was determined after electrophoretic separation of the fluorescently labeled peptide substrate and phosphorylated product on an LabChip EZ Reader II (Caliper Life Sciences, Hopkinton, Mass.).

For another test, the target named is T2, cMet enzyme (Homo sapiens, UniProt P08581).
T2 construct: RTC Lot#032006
T2 sequence (P08581 25-1390): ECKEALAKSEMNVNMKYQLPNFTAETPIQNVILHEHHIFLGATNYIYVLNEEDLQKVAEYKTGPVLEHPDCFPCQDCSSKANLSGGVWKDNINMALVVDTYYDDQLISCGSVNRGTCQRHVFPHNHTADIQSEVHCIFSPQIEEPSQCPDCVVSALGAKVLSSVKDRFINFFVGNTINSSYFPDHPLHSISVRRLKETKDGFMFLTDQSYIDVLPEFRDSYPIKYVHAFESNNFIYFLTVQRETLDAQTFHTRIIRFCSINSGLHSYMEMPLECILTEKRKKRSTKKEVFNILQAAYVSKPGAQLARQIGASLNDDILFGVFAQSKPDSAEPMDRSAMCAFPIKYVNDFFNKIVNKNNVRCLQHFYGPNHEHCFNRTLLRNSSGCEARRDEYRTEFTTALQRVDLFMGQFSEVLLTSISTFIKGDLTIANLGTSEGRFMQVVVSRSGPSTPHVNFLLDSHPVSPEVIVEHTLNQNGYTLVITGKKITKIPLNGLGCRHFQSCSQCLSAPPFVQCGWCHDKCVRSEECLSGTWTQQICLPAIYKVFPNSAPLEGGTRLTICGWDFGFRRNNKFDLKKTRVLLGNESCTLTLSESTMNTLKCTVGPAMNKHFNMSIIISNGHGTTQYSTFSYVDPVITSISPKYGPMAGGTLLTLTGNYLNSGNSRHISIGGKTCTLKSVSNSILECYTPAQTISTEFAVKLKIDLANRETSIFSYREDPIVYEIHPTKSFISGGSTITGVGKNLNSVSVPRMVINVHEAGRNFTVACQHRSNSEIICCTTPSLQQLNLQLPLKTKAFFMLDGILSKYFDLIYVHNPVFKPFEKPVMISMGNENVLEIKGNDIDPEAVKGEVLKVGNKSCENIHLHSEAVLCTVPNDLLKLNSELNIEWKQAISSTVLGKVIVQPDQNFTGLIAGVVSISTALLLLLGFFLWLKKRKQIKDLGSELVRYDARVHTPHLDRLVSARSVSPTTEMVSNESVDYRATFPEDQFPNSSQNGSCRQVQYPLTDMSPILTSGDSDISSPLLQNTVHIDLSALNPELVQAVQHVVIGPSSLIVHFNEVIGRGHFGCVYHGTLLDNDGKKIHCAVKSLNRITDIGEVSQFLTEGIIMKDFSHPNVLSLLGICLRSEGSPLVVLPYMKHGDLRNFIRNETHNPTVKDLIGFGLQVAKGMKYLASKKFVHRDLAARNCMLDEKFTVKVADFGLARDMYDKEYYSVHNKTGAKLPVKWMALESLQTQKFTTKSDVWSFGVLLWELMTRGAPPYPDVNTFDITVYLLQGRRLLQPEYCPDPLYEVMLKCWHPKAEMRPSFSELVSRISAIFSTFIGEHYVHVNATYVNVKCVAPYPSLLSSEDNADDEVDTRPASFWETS
Briefly: cMet enzymatic activity assay. Format: biochemical. The settings on record: purified cMet enzyme 7.5 nM, ATP 17 μM (Km).

The target of the next test is T3, ALK enzyme (Homo sapiens, UniProt Q9UM73).
T3 construct: purchased Invitrogen PV4185
T3 sequence (Q9UM73 19-1620): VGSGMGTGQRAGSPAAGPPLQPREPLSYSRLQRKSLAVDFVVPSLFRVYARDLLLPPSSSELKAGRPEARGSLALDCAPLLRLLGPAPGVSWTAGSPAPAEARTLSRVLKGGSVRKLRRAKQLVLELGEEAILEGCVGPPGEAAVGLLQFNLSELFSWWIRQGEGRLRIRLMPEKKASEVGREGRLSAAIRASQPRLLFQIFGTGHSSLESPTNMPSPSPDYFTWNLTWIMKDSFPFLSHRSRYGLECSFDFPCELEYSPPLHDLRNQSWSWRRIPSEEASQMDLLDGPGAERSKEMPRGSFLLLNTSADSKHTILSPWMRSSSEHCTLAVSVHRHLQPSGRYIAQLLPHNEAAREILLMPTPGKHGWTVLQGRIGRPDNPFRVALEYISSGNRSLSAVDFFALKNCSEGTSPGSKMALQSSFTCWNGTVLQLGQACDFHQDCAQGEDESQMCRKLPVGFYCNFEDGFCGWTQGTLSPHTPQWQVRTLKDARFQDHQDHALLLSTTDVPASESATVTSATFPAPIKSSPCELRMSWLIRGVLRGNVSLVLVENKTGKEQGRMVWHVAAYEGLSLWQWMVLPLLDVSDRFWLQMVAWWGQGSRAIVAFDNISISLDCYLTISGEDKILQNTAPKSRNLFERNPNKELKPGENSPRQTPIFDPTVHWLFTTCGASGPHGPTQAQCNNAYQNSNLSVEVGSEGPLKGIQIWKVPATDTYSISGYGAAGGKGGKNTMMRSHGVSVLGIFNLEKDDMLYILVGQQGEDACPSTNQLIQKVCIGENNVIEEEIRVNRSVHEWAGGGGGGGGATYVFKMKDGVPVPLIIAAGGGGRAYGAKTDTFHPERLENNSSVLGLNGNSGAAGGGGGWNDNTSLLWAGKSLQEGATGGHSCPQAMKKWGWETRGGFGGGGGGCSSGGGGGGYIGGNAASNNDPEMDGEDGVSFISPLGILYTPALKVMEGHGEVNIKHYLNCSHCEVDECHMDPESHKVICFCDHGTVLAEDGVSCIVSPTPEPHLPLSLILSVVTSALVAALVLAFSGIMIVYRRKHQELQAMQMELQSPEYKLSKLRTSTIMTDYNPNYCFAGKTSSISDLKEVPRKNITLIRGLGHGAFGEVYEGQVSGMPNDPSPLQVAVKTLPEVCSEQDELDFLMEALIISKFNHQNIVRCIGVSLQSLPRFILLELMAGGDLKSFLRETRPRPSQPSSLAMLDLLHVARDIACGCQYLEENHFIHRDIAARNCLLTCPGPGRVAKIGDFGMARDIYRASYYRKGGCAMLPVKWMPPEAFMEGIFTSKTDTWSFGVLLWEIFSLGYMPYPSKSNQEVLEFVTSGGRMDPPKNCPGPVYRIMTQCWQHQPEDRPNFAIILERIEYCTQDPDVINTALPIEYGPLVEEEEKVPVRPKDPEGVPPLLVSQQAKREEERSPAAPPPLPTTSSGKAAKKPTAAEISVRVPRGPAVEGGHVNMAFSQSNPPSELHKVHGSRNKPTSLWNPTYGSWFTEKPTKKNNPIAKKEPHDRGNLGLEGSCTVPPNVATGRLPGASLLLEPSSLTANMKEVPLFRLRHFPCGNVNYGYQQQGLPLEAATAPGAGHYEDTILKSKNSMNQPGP
Briefly: ALK enzymatic activity assay 1. Format: biochemical. The procedure:
ALK Enzymatic Activity Assay 1
Compounds were added at a final concentration of 1% DMSO in half-log dilutions, starting at 20 μM final concentration. The reactions were initiated by the addition of 10 μL of peptide/ATP mix to 10 μL enzyme and 2 μL of compound in 384-well plate. […] On the 12-sipper chip, substrate and phosphorylated product were separated with an upstream voltage of −2650 V, a downstream voltage of −500 V, and a screen pressure of −1.5 psi. The relative peak heights of substrate and product were measured and ratios were calculated using HTS Well Analyzer Software version 5.2.43 from the manufacturer.

T1 sequence (Q9UM73 1093-1411): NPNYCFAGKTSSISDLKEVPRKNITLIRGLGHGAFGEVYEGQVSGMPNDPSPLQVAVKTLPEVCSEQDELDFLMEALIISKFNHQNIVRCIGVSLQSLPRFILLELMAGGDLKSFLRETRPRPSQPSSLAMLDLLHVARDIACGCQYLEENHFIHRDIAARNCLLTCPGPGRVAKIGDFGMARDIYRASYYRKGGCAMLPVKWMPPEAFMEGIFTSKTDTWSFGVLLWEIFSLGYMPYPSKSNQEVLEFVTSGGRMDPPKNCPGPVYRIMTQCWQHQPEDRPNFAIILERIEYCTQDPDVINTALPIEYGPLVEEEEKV
Chain of EML4-ALK wt v1 in NIH-3T3 cells (Q9UM73 with tags, fused parts or gaps): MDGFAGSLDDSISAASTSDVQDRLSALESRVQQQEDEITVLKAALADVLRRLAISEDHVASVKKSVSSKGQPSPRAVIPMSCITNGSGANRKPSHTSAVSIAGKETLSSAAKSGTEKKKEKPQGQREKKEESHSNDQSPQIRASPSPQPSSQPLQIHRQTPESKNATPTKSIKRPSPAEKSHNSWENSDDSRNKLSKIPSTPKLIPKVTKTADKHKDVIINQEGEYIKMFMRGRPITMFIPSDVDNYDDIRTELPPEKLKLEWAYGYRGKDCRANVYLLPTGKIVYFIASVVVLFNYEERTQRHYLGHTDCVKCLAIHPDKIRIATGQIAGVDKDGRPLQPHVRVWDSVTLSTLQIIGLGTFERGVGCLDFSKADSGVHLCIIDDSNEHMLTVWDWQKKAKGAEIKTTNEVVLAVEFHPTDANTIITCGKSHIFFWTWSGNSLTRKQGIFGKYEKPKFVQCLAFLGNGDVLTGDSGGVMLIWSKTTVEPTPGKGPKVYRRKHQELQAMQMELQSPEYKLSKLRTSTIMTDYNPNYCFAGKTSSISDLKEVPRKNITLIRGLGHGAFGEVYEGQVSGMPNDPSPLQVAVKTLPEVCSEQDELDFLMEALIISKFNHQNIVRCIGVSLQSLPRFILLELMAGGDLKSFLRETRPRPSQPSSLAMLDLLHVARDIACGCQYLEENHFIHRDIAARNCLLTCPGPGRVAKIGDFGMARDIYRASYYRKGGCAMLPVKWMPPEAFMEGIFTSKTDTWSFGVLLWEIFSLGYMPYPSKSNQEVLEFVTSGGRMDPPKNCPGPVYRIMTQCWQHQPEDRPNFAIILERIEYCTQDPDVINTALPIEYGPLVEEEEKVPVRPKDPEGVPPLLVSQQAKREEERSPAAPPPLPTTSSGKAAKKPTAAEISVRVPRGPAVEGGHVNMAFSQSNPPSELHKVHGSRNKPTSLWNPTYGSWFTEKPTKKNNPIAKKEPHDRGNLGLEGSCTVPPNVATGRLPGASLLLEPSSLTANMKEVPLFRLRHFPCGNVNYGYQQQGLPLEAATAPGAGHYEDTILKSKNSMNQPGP

Take `COc1ccc(F)cc1[C@@H](C)Oc1cc(-c2c(C)nn(CCO)c2C)cnc1N` [Example 53, 2-(4-{6-amino-5-[(1R)-1-(5-fluoro-2-methoxyphenyl)-ethoxy]pyridin-3-yl}-3,5-dimethyl-1H-pyrazol-1-yl)ethanol]: the results for the IC50 (in test [1]; at cMet enzyme; against ALK enzyme) were 23.3 nM, 4440 nM and 27 nM, respectively. Further, the inhibition constant Ki in test [2] was 0.401 nM.
For `COc1ccc(F)cc1C(C)Oc1cc(-c2c(C)noc2C)cnc1N` (stereo not drawn) [Example 54, 5-(3,5-dimethylisoxazol-4-yl)-3-[1-(5-fluoro-2-methoxyphenyl)-ethoxy]pyridin-2-amine], in that order: 194 nM, over 18200 nM, 47.2 nM and 1.3 nM.
Turning to `CC(Oc1cc(-c2ccnn2C)nnc1N)c1cc(F)ccc1-n1cccn1` (stereo not drawn) [Example 55, 4-{1-[5-fluoro-2-(1H-pyrazol-1-yl)phenyl]ethoxy}-6-(1-methyl-1H-pyrazol-5-yl)pyridazin-3-amine], the figures for the IC50 (in test [1]; against cMet enzyme; against ALK enzyme) were 1760 nM, over 20000 nM and 87.6 nM, respectively. The inhibitory constant (Ki) in test [2] was determined as 43 nM.
Taken in the same sequence, the figures for `COc1ccc(F)cc1[C@@H](C)Oc1cc(-c2ccnn2C)nnc1N` [Example 56, 4-[(1R)-1-(5-fluoro-2-methoxyphenyl)ethoxy]-6-(1-methyl-1H-pyrazol-5-yl)pyridazin-3-amine] were 361 nM, over 20000 nM, 47.5 nM and 6.4 nM.
Taken in the same sequence, the figures for `COc1ccc(F)cc1C(C)Oc1nc(-c2cn(C)c(C)n2)cnc1N` (stereo not drawn) [Example 57, 5-(1,2-dimethyl-1H-imidazol-4-yl)-3-[1-(5-fluoro-2-methoxyphenyl)ethoxy]pyrazin-2-amine] were 245 nM, over 20000 nM, 58.7 nM and 5.4 nM.
Taken in the same sequence, the figures for `COc1ccc(F)cc1C(C)Oc1nc(-c2cn(C)cn2)cnc1N` (stereo not drawn) [Example 58, 3-[1-(5-fluoro-2-methoxyphenyl)ethoxy]-5-(1-methyl-1H-imidazol-4-yl)pyrazin-2-amine] were 159 nM, over 20000 nM, 86.5 nM and 1.3 nM.
`CC(Oc1nc(-c2cn(C)cn2)cnc1N)c1cc(F)ccc1Cl` (stereo not drawn) [Example 59, 3-[1-(2-chloro-5-fluorophenyl)ethoxy]-5-(1-methyl-1H-imidazol-4-yl)pyrazin-2-amine]: the 50% inhibitory concentration (IC50) in test [1] is 631 nM; against cMet enzyme it was over 20000 nM; against ALK enzyme, 126 nM. Moreover, the Ki in test [2] was 13 nM.
For `COc1ccc(F)cc1C(C)Oc1nc(-c2nccn2C)cnc1N` (stereo not drawn) [Example 60, 3-[1-(5-fluoro-2-methoxyphenyl)ethoxy]-5-(1-methyl-1H-imidazol-2-yl)pyrazin-2-amine], in that order: 555 nM, over 20000 nM, 67.3 nM and 6.4 nM.
In the case of `CC(Oc1cc(-c2ccnn2C)cnc1N)c1cc(F)ccc1-c1ncco1` (stereo not drawn) [Example 62, 3-{1-[5-fluoro-2-(1,3-oxazol-2-yl)phenyl]ethoxy}-5-(1-methyl-1H-pyrazol-5-yl)pyridin-2-amine], the IC50 worked out at 191 nM in test [1], 2810 nM against cMet enzyme and 50.5 nM on ALK enzyme. For the same molecule, the Ki in test [2] worked out at 4.52 nM.
